Data set [1] has as its target T1, T. cruzi farnesyl diphosphate synthase (TcFPPS) (Trypanosoma cruzi, UniProt Q8WS26).
T1 sequence (Q8WS26 64-425 limits assumed): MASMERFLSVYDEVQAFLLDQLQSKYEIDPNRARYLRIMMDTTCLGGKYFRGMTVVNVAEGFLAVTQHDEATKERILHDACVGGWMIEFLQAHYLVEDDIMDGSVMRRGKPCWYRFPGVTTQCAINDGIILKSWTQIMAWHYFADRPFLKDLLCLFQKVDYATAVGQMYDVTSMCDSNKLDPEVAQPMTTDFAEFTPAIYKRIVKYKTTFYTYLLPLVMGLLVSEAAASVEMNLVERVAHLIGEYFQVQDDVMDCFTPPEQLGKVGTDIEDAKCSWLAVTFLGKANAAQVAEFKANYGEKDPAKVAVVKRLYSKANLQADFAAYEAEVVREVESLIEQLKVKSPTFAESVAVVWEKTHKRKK
The settings on record: cited from earlier work.

Data set [2] concerns T. cruzi-infected mice. Conditions: cited from earlier work.
For data set [3] the following is noted: cited from earlier work.
Data set [4] deals with T. gondii tachyzoites. Briefly: T. gondii tachyzoites growth inhibition assay. In kind it is cell-based, Toxoplasma gondii. Conditions: result in words.

Turning to `CCCCCCNCC(P(=O)(O)O)P(=O)(O)O` [Compound 8], the “mode of inhibition of TcFPPS” value in data set [1] is reported as “competitive inhibitor”. Regarding `O=P(O)(O)C(O)(Cc1cccnc1)P(=O)(O)O` [risedronate], the “survival of T. cruzi-infected mice” value in data set [2] is on record as “significantly increase survival”. For the compound `CN(C)c1ccc(C(=C2C=CC(=[N+](C)C)C=C2)c2ccc(N(C)C)cc2)cc1` [Crystal violet], in data set [3], the “carcinogenicity in in vivo assays” value is given as “carcinogenic”. `CCCCCCCCCCNCC(P(=O)(O)O)P(=O)(O)O` [Compound 24, 1-[(n-Dec-1-ylamino)ethyl] 1,1-bisphosphonic Acid]: in data set [4], the “antiparasitic activity against T. gondii cells” value is “practically devoid of antiparasitic activity”.

The values above are taken from PMC3071284 (Bioorganic & medicinal chemistry, 2011).
